# Where two headings read alike, the source gives them in different places. Marks after values point to notes of the source that are not given here.
# Tests used:
# GluN1-G620R/GluN2A = GluN1-G620R/GluN2A (Homo sapiens, UniProt Q05586+Q12879, G620R); assay: TEVC current recordings from Xenopus oocytes, channel blocker inhibition; format: cell-based; details: for % inhibition: 1-G620R/2A, 100 μM blocker, −40 mV; for IC50: IC50, 1-G620R/2A, holding −40 mV
# [1] = biological target: GluN2B-N616K-containing NMDARs (Homo sapiens, UniProt Q05586+Q13224, N616K); assay: as above; format: cell-based; details: for % inhibition: 2B-N616K, 100 μM blocker, −40 mV; for IC50: IC50, 2B-N616K, holding −40 mV
# [2] = biological target: GluN2B-V620M-containing NMDARs (Homo sapiens, UniProt Q05586+Q13224, V620M); assay: as above; format: cell-based; details: for % inhibition: 2B-V620M, 100 μM blocker, −40 mV; for IC50: IC50, 2B-V620M, holding −40 mV
# WT GluN1/GluN2A = WT GluN1/GluN2A (Homo sapiens, UniProt Q05586+Q12879); assay: as above; format: cell-based; details: for IC50: IC50, WT GluN1/WT 2A, holding −40 mV; for % inhibition: WT GluN1/WT 2A, 100 μM blocker, −40 mV
# GluN1/GluN2A-L611Q [3] = biological target: T1, GluN1/GluN2A-L611Q (Homo sapiens, UniProt Q05586+Q12879, L611Q); assay: Current-voltage curves; details: 2A-L611Q
# [4] = biological target: GluN2A-N615K-containing NMDARs (Homo sapiens, UniProt Q05586+Q12879, N615K); assay: TEVC current recordings from Xenopus oocytes, channel blocker inhibition; format: cell-based; details: for % inhibition: 2A-N615K, 100 μM blocker, −40 mV; for IC50: IC50, 2A-N615K, holding −40 mV
# GluN1/GluN2A-L611Q [5] = biological target: T1, GluN1/GluN2A-L611Q; assay: as above; format: cell-based; details: for % inhibition: 2A-L611Q, 100 μM blocker, −40 mV; for IC50: IC50, 2A-L611Q, holding −40 mV
# GluN1/GluN2B-N615I = GluN1/GluN2B-N615I (Homo sapiens, UniProt Q05586+Q13224, N615I); assay: as above; format: cell-based; details: for % inhibition: 2B-N615I, 100 μM blocker, −40 mV; for IC50: IC50, 2B-N615I, holding −40 mV
# WT GluN1/GluN2B = WT GluN1/GluN2B (Homo sapiens, UniProt Q05586+Q13224); assay: as above; format: cell-based; details: for IC50: IC50, WT GluN1/WT 2B, holding −40 mV; for % inhibition: WT GluN1/WT 2B, 100 μM blocker, −40 mV
# [6] = biological target: GluN2B-G611V-containing NMDARs (Homo sapiens, UniProt Q05586+Q13224, G611V); assay: as above; format: cell-based; details: for % inhibition: 2B-G611V, 100 μM blocker, −40 mV; for IC50: IC50, 2B-G611V, holding −40 mV
# GluN1/GluN2B-N615K = GluN1/GluN2B-N615K (Homo sapiens, UniProt Q05586+Q13224, N615K); assay: as above; format: cell-based; details: for % inhibition: 100 μM blocker, −40 mV
# [7] = biological target: GluN2A-N614S-containing NMDARs (Homo sapiens, UniProt Q05586+Q12879, N614S); assay: as above; format: cell-based; details: for % inhibition: 2A-N614S, 100 μM blocker, −40 mV; for IC50: IC50, 2A-N614S, holding −40 mV
# [8] = biological target: GluN2B-V618G-containing NMDARs (Homo sapiens, UniProt Q05586+Q13224, V618G); assay: as above; format: cell-based; details: for % inhibition: 2B-V618G, 100 μM blocker, −40 mV; for IC50: IC50, 2B-V618G, holding −40 mV
# [9] = biological target: GluN2B-W607C-containing NMDARs (Homo sapiens, UniProt Q05586+Q13224, W607C); assay: as above; format: cell-based; details: for % inhibition: 2B-W607C, 100 μM blocker, −40 mV; for IC50: IC50, 2B-W607C, holding −40 mV
structure (smiles),measurement,setting,value
CNC1(c2ccccc2Cl)CCCCC1=O (stereo not shown) [ketamine],% inhibition,GluN1-G620R/GluN2A; w/ 1 mM Mg^2+,97 ± 0.6 (7)^¥ %
same,% inhibition,GluN1-G620R/GluN2A; w/o Mg^2+,95 ± 1.8 (12) %
same,increased potency in 1 mM Mg^2+ compared to the same variant in the absence of Mg^2+,GluN1-G620R/GluN2A; GluN1-G620R,2.5 fold
same,enhanced potency in comparison to WT NMDARs,"GluN1-G620R/GluN2A; GluN1-G620R, absence of Mg^2+",2.2 fold
same,IC50,GluN1-G620R/GluN2A; w/ 1 mM Mg^2+,1 µM
same,IC50,GluN1-G620R/GluN2A; w/o Mg^2+,2.5 µM
same,% inhibition,[1]; w/ 1 mM Mg^2+,93 ± 1.3% (13)^¥
same,% inhibition,[1]; w/o Mg^2+,91 ± 2.7% (8)
same,enhanced potency in comparison to WT NMDARs,"[1]; GluN2B-N616K, absence of Mg^2+",1.8 fold
same,IC50,[1]; w/ 1 mM Mg^2+,2.5 µM
same,IC50,[1]; w/o Mg^2+,2.3 µM
same,% inhibition,[2]; w/ 1 mM Mg^2+,91 ± 2.8% (8)
same,% inhibition,[2]; w/o Mg^2+,93 ± 1.0% (10)
same,reduced potency in 1 mM Mg^2+ vs absence of Mg^2+,[2]; GluN2B-V620M,2.1 fold
same,IC50,[2]; w/ 1 mM Mg^2+,7 µM
same,IC50,[2]; w/o Mg^2+,3.4 µM
same,IC50,WT GluN1/GluN2A; w/ 1 mM Mg^2+,17 µM
same,IC50,WT GluN1/GluN2A; w/o Mg^2+,5.5 µM
same,% inhibition,WT GluN1/GluN2A; w/ 1 mM Mg^2+,79 ± 2.4% (24)
same,% inhibition,WT GluN1/GluN2A; w/o Mg^2+,92 ± 1.1% (25)
same,"z δ (apparent, combined block)",GluN1/GluN2A-L611Q [3]; 1 mM Mg^2+ + 0.3 μM ketamine,1.14
same,"z δ (apparent, combined block)",GluN1/GluN2A-L611Q [3]; 1 mM Mg^2+ + 1.0 μM ketamine,1.02
same,"z δ (apparent, combined block)",GluN1/GluN2A-L611Q [3]; 1 mM Mg^2+ + 3.0 μM ketamine,1.01
same,"z δ (apparent, combined block)",GluN1/GluN2A-L611Q [3]; 1 mM Mg^2+ + 10 μM ketamine,0.84
same,"z δ (apparent, combined block)","GluN1/GluN2A-L611Q [3]; 1 mM Mg^2+ + 30 μM ketamine, zδ was fixed to 0.80 for this condition",0.80 ^*
same,"z δ (apparent, combined block)",GluN1/GluN2A-L611Q [3]; 1 mM Mg^2+ + 100 μM ketamine,0.80
same,% inhibition,[4]; w/ 1 mM Mg^2+,92 ± 3.3% (7)^¥
same,% inhibition,[4]; w/o Mg^2+,93 ± 1.5% (18)
same,IC50,[4]; w/ 1 mM Mg^2+,1.6 µM
same,IC50,[4]; w/o Mg^2+,4.3 µM
same,increased potency in 1 mM Mg^2+ compared to the same variant in the absence of Mg^2+,[4]; printed GluN2A-N616K,2.7 fold
same,% inhibition,GluN1/GluN2A-L611Q [5]; w/ 1 mM Mg^2+,93 ± 2.1% (10) ^*^¥
same,% inhibition,GluN1/GluN2A-L611Q [5]; w/o Mg^2+,87 ± 1.5% (17)
same,increased potency in 1 mM Mg^2+ compared to the same variant in the absence of Mg^2+,GluN1/GluN2A-L611Q [5]; GluN2A-L611Q,1.8 fold
same,IC50,GluN1/GluN2A-L611Q [5]; w/ 1 mM Mg^2+,4 µM
same,IC50,GluN1/GluN2A-L611Q [5]; w/o Mg^2+,7.2 µM
same,% inhibition,GluN1/GluN2B-N615I; w/ 1 mM Mg^2+,94 ± 1.8% (8)^¥
same,% inhibition,GluN1/GluN2B-N615I; w/o Mg^2+,89 ± 1.9 (10) %
same,enhanced potency in comparison to WT NMDARs,"GluN1/GluN2B-N615I; GluN2B-N615I, absence of Mg^2+",8.1 fold
same,IC50,GluN1/GluN2B-N615I; w/ 1 mM Mg^2+,0.76 µM
same,IC50,GluN1/GluN2B-N615I; w/o Mg^2+,0.51 µM
same,IC50,WT GluN1/GluN2B; w/ 1 mM Mg^2+,14 µM
same,IC50,WT GluN1/GluN2B; w/o Mg^2+,4.2 µM
same,% inhibition,WT GluN1/GluN2B; w/ 1 mM Mg^2+,86 ± 1.0% (12)
same,% inhibition,WT GluN1/GluN2B; w/o Mg^2+,95 ± 1.0% (13)
same,% inhibition,[6]; w/ 1 mM Mg^2+,88 ± 1.6% (16)
same,% inhibition,[6]; w/o Mg^2+,92 ± 2.6% (7)
same,reduced potency in 1 mM Mg^2+ vs absence of Mg^2+,[6]; GluN2B-G611V,2.6 fold
same,IC50,[6]; w/ 1 mM Mg^2+,8 µM
same,IC50,[6]; w/o Mg^2+,3.1 µM
same,IC50,GluN1/GluN2B-N615K,> 100 µM
same,% inhibition,"GluN1/GluN2B-N615K; 2B-N615K, w/ 1 mM Mg^2+",6.5 ± 1.5% (16) ^*^¥
same,% inhibition,"GluN1/GluN2B-N615K; 2B-N615K, w/o Mg^2+",22 ± 3.8 (15)^¥ %
same,IC50,"GluN1/GluN2B-N615K; 2B-N615K, w/ 1 mM Mg^2+, holding −40 mV",> 100 µM
same,reduced potency compared to the WT receptors,"GluN1/GluN2B-N615K; GluN2B-N615K, presence of 1 mM Mg^2+",over 5.9 fold
same,% inhibition,[7]; w/ 1 mM Mg^2+,77 ± 4.1% (9)
same,% inhibition,[7]; w/o Mg^2+,78 ± 3.0% (12)^¥
same,reduced potency (less potent) vs WT,"[7]; GluN2A-N614S, absence of Mg^2+",~ 3 fold
same,IC50,[7]; w/ 1 mM Mg^2+,31 µM
same,IC50,[7]; w/o Mg^2+,29 µM
same,% inhibition,[8]; w/ 1 mM Mg^2+,81 ± 2.1% (8)
same,% inhibition,[8]; w/o Mg^2+,77 ± 3.0% (8)^¥
same,reduced potency (less potent) vs WT,"[8]; GluN2B-V618G, absence of Mg^2+",~ 3 fold
same,IC50,[8]; w/ 1 mM Mg^2+,24 µM
same,IC50,[8]; w/o Mg^2+,18 µM
same,% inhibition,[9]; w/ 1 mM Mg^2+,89 ± 2.8% (9)
same,% inhibition,[9]; w/o Mg^2+,80 ± 3.6% (12)^¥
same,reduced potency (less potent) vs WT,"[9]; GluN2B-W607C, absence of Mg^2+",~ 3 fold
same,IC50,[9]; w/ 1 mM Mg^2+,11 µM
same,IC50,[9]; w/o Mg^2+,16 µM
